From PubChem BioAssay (NCI)
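Assay format: 96-well plates, 48-hour exposure. The concentration for full growth arrest is given as TGI.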

Key:
Test in all cases: NCI anticancer screen, dose series, 48 h
OVCAR-5 ovarian = test system: OVCAR-5 ovarian
LOX IMVI melanoma = test system: LOX IMVI melanoma
NCI-H226 lung = test system: NCI-H226 lung
M14 melanoma = test system: M14 melanoma
SK-MEL-5 melanoma = test system: SK-MEL-5 melanoma
NCI-H23 lung = test system: NCI-H23 lung
CCRF-CEM leukemia = test system: CCRF-CEM leukemia
NCI-H460 lung = test system: NCI-H460 lung
786-0 renal = test system: 786-0 renal
UACC-62 melanoma = test system: UACC-62 melanoma
RPMI-8226 leukemia = test system: RPMI-8226 leukemia
NCI/ADR-RES ovarian = test system: NCI/ADR-RES ovarian
BT-549 breast = test system: BT-549 breast
NCI-H522 lung = test system: NCI-H522 lung
SNB-75 CNS = test system: SNB-75 CNS
ACHN renal = test system: ACHN renal
UACC-257 melanoma = test system: UACC-257 melanoma
SK-OV-3 ovarian = test system: SK-OV-3 ovarian
MCF7 breast = test system: MCF7 breast
SR leukemia = test system: SR leukemia
RXF 393 renal = test system: RXF 393 renal
MDA-N = test system: MDA-N
HCC-2998 colon = test system: HCC-2998 colon
SK-MEL-2 melanoma = test system: SK-MEL-2 melanoma
HCT-116 colon = test system: HCT-116 colon
OVCAR-8 ovarian = test system: OVCAR-8 ovarian
SNB-19 CNS = test system: SNB-19 CNS
MDA-MB-231 breast = test system: MDA-MB-231 breast
SW-620 colon = test system: SW-620 colon
COLO 205 colon = test system: COLO 205 colon
HCT-15 colon = test system: HCT-15 colon
HS 578T breast = test system: HS 578T breast
UO-31 renal = test system: UO-31 renal
SK-MEL-28 melanoma = test system: SK-MEL-28 melanoma
TK-10 renal = test system: TK-10 renal
DU-145 prostate = test system: DU-145 prostate
MOLT-4 leukemia = test system: MOLT-4 leukemia
MALME-3M melanoma = test system: MALME-3M melanoma
HL-60(TB) leukemia = test system: HL-60(TB) leukemia
OVCAR-4 ovarian = test system: OVCAR-4 ovarian
KM12 colon = test system: KM12 colon
SF-295 CNS = test system: SF-295 CNS
SF-539 CNS = test system: SF-539 CNS
A549 NSCLC = test system: A549 NSCLC
K-562 leukemia = test system: K-562 leukemia
IGROV1 ovarian = test system: IGROV1 ovarian
CAKI-1 renal = test system: CAKI-1 renal
PC-3 prostate = test system: PC-3 prostate
U251 CNS = test system: U251 CNS
T-47D breast = test system: T-47D breast
SN12C renal = test system: SN12C renal
EKVX NSCLC = test system: EKVX NSCLC
HOP-62 NSCLC = test system: HOP-62 NSCLC
SF-268 CNS = test system: SF-268 CNS
HT29 colon = test system: HT29 colon
A498 renal = test system: A498 renal
MDA-MB-435 = test system: MDA-MB-435
OVCAR-3 ovarian = test system: OVCAR-3 ovarian

Measured: TGI

CC(C)OC(=O)C1(C(C)C)CCc2ccc(C(=O)CCC(=O)O)cc21 (stereo not given)
not listed: A498 renal | MDA-MB-435 | OVCAR-3 ovarian
> 100 µM: all other assays above

Nc1n[nH]c2c(C(=O)Nc3ccc(Cl)cc3)c(N)n(N)c(=O)c12
not listed: ACHN renal | SF-295 CNS | HOP-62 NSCLC
> 100 µM: all other assays above
